Key:
MV4-11 cells = experiment: Inhibition of proliferation of MV4-11 cells (CellTiter-Glo); type: cell-based; details: Homo sapiens, 72 h
Protocol: Specific experimental steps: 1) Day 0: 96 inoculated cells were digested with trypsin and suspended in cell culture medium, the cell density was detected by an automatic cell counter and the cells were diluted with the culture medium to a suitable density, 100 μL of cell suspension was added to the 96-well plate, and the cell-free medium was used as a control well, and the wells were incubated in a 37° C., 5% CO2 cell incubator overnight; 2) Day 1: A total of 8 concentrations of the compound to be tested in the drug-treated cells were tested at 3-fold dilution, 10 μM was the starting assay concentration of the compound to be tested. Specific steps: 200× compound mother liquor was prepared, the compound was diluted with culture medium to a final concentration of […], that is, 3 μL of 200× compound was added to 197 μL of culture medium, 50 μL diluted compound was added to each well of the 96-well plate, and placed at 37° C., 5% CO2 cell culture incubator for 72 h; 3) Day 4: Cell viability detection: 96-well cell plate was first equilibrated to room temperature, 40 μL of CellTiter-Glo® reagent was added to each well, mixed on a shaker for 2 minutes to fully lyse the cells, incubated at room temperature for 10 minutes to stabilize the luminescence signal, and the luminescence value was read by the Envision microplate reader; 4) data processing was performed by GraphPad Prism 5.0 software to analyze the data, and nonlinear S-curve regression was used to fit the data to obtain a dose-effect curve, and from which the ICso value was calculated. Inhibition rate %=(DMSO treated cell wells−compound treated cell wells)/(DMSO treated cell wells−cell free medium wells)×100. The ICso value was obtained by the four-parameter regression method using the random software in the microplate reader. (See Table 2 for specific values)

[1] = tested on: LNCAP, SKM-1, MOLM13, KASUMI 1, THP-1, KG-1; experiment: Proliferation inhibition of different cell lines: most sensitive lines; type: cell-based; details: some cell lines such as LNCAP, read-out: proliferation inhibitory activity IC50
Protocol: (§1) The proliferation inhibitory activity of some of the embodiment compounds against different cell lines such as LNCAP (+R1881), SKM-1, 22RV1, DU145, MOLM13, MDA-PCA-2b, KASUMI 1, THP-1, KG-1, IEC6, H1299, etc., was tested using similar methods in test embodiment 2 and in the literature.

IEC6 = experiment: Proliferation inhibition of IEC6 cells; type: cell-based; details: Rattus norvegicus, IEC-6; IEC6 cell line; read-out: proliferation inhibitory activity IC50
Protocol: as §1

CYP2C19 = biological target: T1, CYP2C19 (Homo sapiens, UniProt P33261); experiment: Direct inhibition test (DI test) in human liver microsomes, CYP2C19; type: in vitro ADME; details: read-out: inhibitory IC50 on CYP 2C19
T1 construct: human liver microsomes (final concentration was 0.2 mg/mL); from tissue; host or cells: human liver microsomes
T1 sequence (P33261 whole entry): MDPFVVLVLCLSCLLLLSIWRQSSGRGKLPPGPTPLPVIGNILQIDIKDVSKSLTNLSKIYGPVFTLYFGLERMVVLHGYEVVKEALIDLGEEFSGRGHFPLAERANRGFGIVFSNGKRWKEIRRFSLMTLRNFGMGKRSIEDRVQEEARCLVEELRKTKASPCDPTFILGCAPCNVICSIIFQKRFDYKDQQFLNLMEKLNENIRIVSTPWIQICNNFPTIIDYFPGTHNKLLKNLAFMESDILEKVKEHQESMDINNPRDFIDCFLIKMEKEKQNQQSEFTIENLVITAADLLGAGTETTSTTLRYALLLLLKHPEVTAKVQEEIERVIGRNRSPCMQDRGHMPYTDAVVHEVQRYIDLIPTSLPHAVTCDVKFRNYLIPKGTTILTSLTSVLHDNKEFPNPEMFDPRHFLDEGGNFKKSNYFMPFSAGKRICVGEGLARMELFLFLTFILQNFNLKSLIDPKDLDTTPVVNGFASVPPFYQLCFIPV
Protocol: (§2) (2) Direct inhibition test (DI test): 1004 of human liver microsomes (final concentration was 0.2 mg/mL) system was subjected to inhibition incubation directly, the system contains NADPH (final concentration was 1 mM), 10 μM compound, positive inhibitor cocktail (ketoconazole 10 μM, quinidine 10 μM, sulfapyrazole 100 μM, a-naphthoflavone 10 μM, tranylcypromine […]), negative control (0.1% DMSO BPS) and mixed probe substrate (midazolam 1004, testosterone 10004, dextromethorphan 10 μM, diclofenac 20 μM, phenacetin 100 μM, mephenytoin 100 μM), the reaction was terminated after incubation for 20 min. The relative enzyme activity was calculated by measuring the relative production of metabolites.

CYP3A4 = biological target: T2, CYP3A4 (Homo sapiens, UniProt P08684); experiment: Direct inhibition test (DI test) in human liver microsomes, CYP3A4; type: in vitro ADME; details: read-out: inhibitory IC50 on CYP 3A4
T2 construct: human liver microsomes (final concentration was 0.2 mg/mL); from tissue; host or cells: human liver microsomes
T2 sequence (P08684 whole entry): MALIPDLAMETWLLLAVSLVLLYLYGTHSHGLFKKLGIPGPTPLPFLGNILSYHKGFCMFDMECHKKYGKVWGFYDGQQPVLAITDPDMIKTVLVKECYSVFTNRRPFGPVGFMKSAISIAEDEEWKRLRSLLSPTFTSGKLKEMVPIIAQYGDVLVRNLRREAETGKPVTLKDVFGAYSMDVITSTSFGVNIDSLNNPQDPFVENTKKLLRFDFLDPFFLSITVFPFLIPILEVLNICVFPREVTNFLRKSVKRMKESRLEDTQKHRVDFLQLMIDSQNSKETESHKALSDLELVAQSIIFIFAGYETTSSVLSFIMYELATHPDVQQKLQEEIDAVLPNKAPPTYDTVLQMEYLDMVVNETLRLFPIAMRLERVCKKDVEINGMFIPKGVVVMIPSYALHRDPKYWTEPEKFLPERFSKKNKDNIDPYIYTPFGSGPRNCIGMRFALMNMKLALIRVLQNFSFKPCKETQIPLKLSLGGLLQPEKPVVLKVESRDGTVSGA
Protocol: as §2

[2] = In vivo pharmacokinetics in beagle dogs; details: dog, plasma, po, gavage, 10 mg/kg
[3] = tested on: MV 4-11 transplanted tumor; experiment: Growth inhibition of MV 4-11 transplanted tumor in nude mice; type: in vivo; details: for inhibitory rate (growth of transplanted tumor): dose of 15 mpk, oral, daily; for tolerability in experimental animals / tumor inhibitory effect: higher doses, 50 mg/kg-100 mg/kg
Protocol: The tumor tissue in vigorous growth stage was cut into about 1.5 mm^3 and inoculated subcutaneously in the right armpit of nude mice under sterile conditions. The diameter of subcutaneous transplanted tumor in nude mice was measured with vernier caliper, and the animals were randomly divided into groups when the average tumor volume was about 130 mm^3. […] During the whole experiment, the diameter of the transplanted tumor was measured twice a week, and the weight of mice was weighed at the same time. The calculation formula of tumor volume (TV) was: TV=½×a×b^2, wherein a and b represent the length and width respectively. The relative tumor volume (RTV) was calculated according to the measurement results, and the calculation formula was: RTV=VT/v0. Wherein VO is the tumor volume measured during the administration in cage (i.e., d0), and Vt is the tumor volume at each measurement.

[4] = Metabolic stability in mouse liver microsomes; type: in vitro ADME; details: liver microsomes 0.5 mg/mL, NADPH, 1 μM compound, read-out: Mouse microsomal T1/2
Protocol: (§3) (1) Metabolic stability test: 150 μL of liver microsomes (final concentration was 0.5 mg/mL) were subjected to metabolic stability incubation, the system containing NADPH (final concentration was 1 mM), 1 μM of the test compound and the positive control midazolam or the negative control atenolol, the reaction was terminated with acetonitrile containing tinidazole at 0 min, 5 min, 10 min, and 30 min, respectively, then the mixture was vortexed for 10 min, and centrifuged at 15000 rmp for 10 min, 50 μL of the supernatant was injected into 96 well. The metabolic stability of the compound was calculated by measuring the relative reduction of the original drug. (See Table 3 for specific values)

[5] = Metabolic stability in rat liver microsomes; type: in vitro ADME; details: liver microsomes 0.5 mg/mL, NADPH, 1 μM compound, read-out: Rat microsomal T1/2
Protocol: as §3

[6] = Metabolic stability in dog liver microsomes; type: in vitro ADME; details: liver microsomes 0.5 mg/mL, NADPH, 1 μM compound, read-out: Dog microsomal T1/2
Protocol: as §3

Row | SMILES | IC50 (MV4-11 cells) [µM] | IC50 [1] [µM] | IC50 (IEC6) [µM] | IC50 (CYP2C19) [µM] | IC50 (CYP3A4) [µM] | AUC [2] [µM·h] | Cmax [2] [nM] | half-life [2] [h] | inhibitory rate (growth of transplanted tumor) [3] [%] | tolerability in experimental animals [3] | tumor inhibitory effect [3] | half-life at 1 μM [4] [h] | half-life at 1 μM [5] [h] | half-life at 1 μM [6] [h]
1 | CCNC(=O)c1cc2c(=O)n(C)cc(-c3cc(C(C)(C)O)ccc3Oc3c(C)cc(F)cc3C)c2[nH]1 [compound 1, reference compound] | 0.0023 | < 0.1 | > 1 | > 15 | > 15 | > 15 | 2000 | > 2 | 82 | tolerate it well | obvious | – | – | –
2 | Cc1cc(F)cc(C)c1Oc1ccc(C(C)(C)O)cc1-c1cn(C)c(=O)c2cc(C(=O)NC3CC(F)(F)C3)[nH]c12 [Embodiment 18, N-(3,3-difluorocyclobutyl)-7-(2-(4-fluoro-2,6-dimethylphenoxy)-5-(2-hydroxyprop-2-yl)phenyl)-5-methyl-4-oxo-4,5-dihydro-1H-pyrrolo[3,2-c] pyridine-2-amide] | 0.0106 | < 0.1 | > 1 | > 15 | > 15 | > 15 | 2000 | > 2 | 82 | tolerate it well | obvious | 1.27 | 1.38 | 6.67

Reference: US12459939B2 (SHANGHAI RINGENE BIOPHARMA CO., LTD., priority 2019, dated 2025)
